In article PMC5147024, “Combined Whole-Cell High-Throughput Functional Screening for Identification of New Nicotinamidases/Pyrazinamidases in Metagenomic/Polygenomic Libraries” (Frontiers in Microbiology, 2016):

Target: T1, PolyNic (polygenomic nicotinamidase)
T1 construct: 588 bp PCR product in pET-46 Ek/LIC, expressed in E. coli Rosetta 2 (DE3); dimer
Assay: HPLC nicotinamidase assay, Morrison fit, NAM as substrate (Ki […] with PZA as substrate)
Type: biochemical

Ki: 180 nM
SMILES: O=Cc1cccnc1 [nicotinaldehyde]
